Experimental data from patent publication EP3046573B1, “AMYLIN ANALOGUES” (Zealand Pharma A/S, priority 2013, dated 2015).
Numbered stars: 1 amine (or outer) side, 2 acyl side, 3 side chain; on linkers, the order of the positions; unused ones are H or OH. Bridge positions count the residues as written; N and C are the ends. Square brackets hold non-standard residues; d marks the D form. Peptide text beside a SMILES is read from it. * marks the point of attachment. C20 diacid = O=C(O)CCCCCCCCCCCCCCCCCCC(=O)*; γGlu = O=C(O)[C@H](CCC(=O)[*:2])N[*:1]; NMeI = CC[C@H](C)[C@H](NC)C(=O)O; Orn = NCCC[C@H](N)C(=O)O; Sar = CNCC(=O)O

What was measured:
[1] = molecular target: T1, human calcitonin receptor (hCTR2) (Homo sapiens, UniProt P30988); assay: hCTR2 assay: induction of cAMP (AlphaScreen cAMP Assay kit) in COS7 cells expressing hCTR2; assay type: cell-based
T1 construct: expressed in transfected cells
T1 sequence (P30988 25-474): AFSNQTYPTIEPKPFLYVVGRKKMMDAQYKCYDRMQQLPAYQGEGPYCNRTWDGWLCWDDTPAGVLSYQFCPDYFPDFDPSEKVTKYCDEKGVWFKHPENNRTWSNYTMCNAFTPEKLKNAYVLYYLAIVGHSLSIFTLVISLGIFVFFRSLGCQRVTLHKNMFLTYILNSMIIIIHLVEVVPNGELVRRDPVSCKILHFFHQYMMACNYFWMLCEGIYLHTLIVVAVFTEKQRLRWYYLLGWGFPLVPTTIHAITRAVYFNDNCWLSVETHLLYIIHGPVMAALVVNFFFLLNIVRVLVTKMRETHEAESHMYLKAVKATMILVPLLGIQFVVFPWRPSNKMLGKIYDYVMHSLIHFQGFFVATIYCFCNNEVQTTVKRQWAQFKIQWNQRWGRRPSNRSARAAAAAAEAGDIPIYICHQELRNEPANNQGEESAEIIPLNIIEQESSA
Excerpt: The cell line COS7, originating from African Green Monkey kidney fibroblast cells, was used for establishment of the stable cell lines described below. The COS7 cellular background was used due to it being RAMP naive, and as such it provides the best available system for testing of the monomeric hCTR and different heterodimeric amylin receptor subtypes functionally generated by introduction of the individual RAMPs.
A cell line expressing the human calcitonin receptor (hCTR2) was generated in the COS7 cellular background as stable clones. In brief, hCTR2 (GI: 4502547) was amplified by PCR using primers encoding terminal restriction sites for subcloning. The 5'-end primers additionally encoded a near Kozak consensus sequence to ensure efficient translation. The fidelity of the DNA encoding the receptor was confirmed by DNA sequencing. The PCR products encoding the receptor were subcloned into a mammalian expression vector containing a neomycin (G418) resistance marker. The mammalian expression vector encoding the receptor was transfected into COS7 cells by a standard liposome transfection method. 48 hours post-transfection, cells were seeded for limited dilution cloning and selected with 1 mg/ml G418 in the culture medium. After 3 weeks, surviving colonies of hCTR2-expressing cells were picked, propagated and tested in the amylin efficacy assay as described in Example 3 below. One hCTR2-expressing clone was chosen for compound profiling.
In vitro activity of test peptides at the hCTR2 and hAMYR3 receptors was assessed by measuring the induction of cAMP following stimulation of the receptor by pramlintide or peptides of the invention using the AlphaScreen® cAMP Assay kit from Perkin-Elmer.
Briefly, COS7 cells expressing hCTR2 (see Example 2, above) were seeded at 30-40,000 cells per well in 96-well microtiter plates coated with 0.01 % poly-L-lysine, and grown for 1 day in culture in 100 µl growth medium [DMEM, 10% FCS, Penicillin (100 IU/ml), Streptomycin (100 µg/ml)]. On the day of analysis, growth medium was removed and the cells were washed once with 200 µl Tyrode buffer [Tyrode's Salts (9.6 g/l), 10 mM HEPES, pH 7.4]. Cells were incubated in 100 µl Tyrode buffer containing increasing concentrations of test peptides, 100 µM IBMX and 0.1% casein for 15 min at 37° C. The reaction was stopped by carefully decanting off the compound/buffer medium and replacing it with lysis/detection buffer (80 µl 0.1 % w/v BSA, 5 mM HEPES, 0.3 % v/v Tween-20 in deionized water). After incubation at room temperature for 10 min., the cAMP content of the resulting cell lysate was estimated according to the AlphaScreen® cAMP Assay manufacturer's instructions. EC50 values and relative efficacy values (in %) compared to reference peptide (Pramlintide) were estimated by computer-aided curve fitting using the 4-parameter logistic (4PL) non-linear model.
The in vitro activity results (expressed as EC50 values) for peptides of the invention and for Pramlintide (reference peptide) are summarized in Table 2, below.

[2] = Solubility assessment (turbidity absorbance at 325 nm); assay type: physicochemical; conditions: stock 2 mg/ml diluted 1:1, ambient temperature (typically 25°C), n=1; for Solubility, Acetate buffer pH 4: 100 mM acetate buffer pH 4.0; for Solubility, Acetate buffer pH 5: 100 mM acetate buffer pH 5.0; for Solubility, Histidine buffer pH 6: 100 mM histidine buffer pH 6.0; for Solubility, Histidine buffer pH 7: 100 mM histidine buffer pH 7.0; for Solubility, Phosphate buffer pH 6: 100 mM phosphate buffer pH 6.0; for Solubility, Phosphate buffer pH 7: 100 mM phosphate buffer pH 7.0; for Solubility, Phosphate buffer pH 7.5: 100 mM phosphate buffer pH7.5
Experimental: A stock solution of the test peptide (2 mg/ml; determined from the weighed amount of peptide) in demineralized water adjusted to pH 2.5 with HCI was prepared, and aliquots were diluted 1:1 in 100 mM acetate buffer (pH 4.0 and pH 5.0), 100 mM histidine buffer (pH 6.0 and pH 7.0) and 100 mM phosphate buffer (pH 6.0, pH 7.0 and pH7.5), respectively, and loaded in a standard flat-bottom, non-sterile 96-well UV Microplate. The absorbance of samples (single samples, n=1) at 280 and 325 nm was measured in an absorbance-based plate reader, which was preheated to ambient temperature (typically 25°C). The turbidity absorbance criterion for a peptide solubility of ≥ 1 mg/ml was an absorbance at 325 nm of ≤ 0.02 absorbance units (which is 5 to 6 times the standard deviation of 8 buffer samples in a plate). Solubility data for peptides of the invention, pramlintide, and for a comparison pramlintide derivative denoted NN96 (see Example 5 below for details) are shown in Table 1, below. Table 1. Solubility data for compounds of the invention.

Compound | EC50 [1] | Solubility, Acetate buffer pH 4 [2] | Solubility, Acetate buffer pH 5 [2] | Solubility, Histidine buffer pH 6 [2] | Solubility, Histidine buffer pH 7 [2] | Solubility, Phosphate buffer pH 6 [2] | Solubility, Phosphate buffer pH 7 [2] | Solubility, Phosphate buffer pH 7.5 [2]
CC[C@H](C)[C@@H](C(=O)N[C@@H](CC(C)C)C(=O)N[C@@H](CO)C(=O)N[C@@H](CO)C(=O)N[C@H](C(=O)N[C@@H](CC(N)=O)C(=O)N[C@H](C(=O)NCC(=O)N[C@@H](CO)C(=O)N[C@@H](CC(N)=O)C(=O)N[C@H](C(=O)N1CCC[C@H]1C(N)=O)[C@@H](C)O)C(C)C)[C@@H](C)O)N(C)C(=O)[C@H](C)NC(=O)CN(C)C(=O)[C@H](Cc1ccccc1)NC(=O)[C@H](CC(N)=O)NC(=O)[C@H](CC(N)=O)NC(=O)[C@H](CO)NC(=O)[C@H](CO)NC(=O)[C@@H](Cc1c[nH]cn1)NC(=O)[C@H](Cc1c[nH]cn1)NC(=O)[C@H](CC(C)C)NC(=O)[C@H](Cc1ccccc1)NC(=O)[C@H](CCC(=O)O)NC(=O)[C@H](C)NC(=O)[C@H](CC(C)C)NC(=O)[C@H](CCCNC(=N)N)NC(=O)[C@H](CCC(N)=O)NC(=O)[C@@H](NC(=O)[C@H](C)NC(=O)[C@@H]1CSSC[C@H](NC(=O)[C@H](CCCNC(=N)N)NC(=O)CC[C@H](NC(=O)CCCCCCCCCCCCCCCCCCC(=O)O)C(=O)O)C(=O)N[C@@H](CC(N)=O)C(=O)N[C@@H]([C@@H](C)O)C(=O)N[C@@H](C)C(=O)N[C@@H]([C@@H](C)O)C(=O)N1)[C@@H](C)O [Compound 12, [19CD]-isoGlu-RC()NTATC()ATQRLAEFLH-DHis-SSNNF-Gly(Me)-A-Ile(Me)-LSSTNVGSNTP-NH2] ({C20 diacid-γGlu}-RCNTATCATQRLAEFLH[dH]SSNNF[Sar]A[NMeI]LSSTNVGSNTP-NH2; disulfide 2-7) | 0.088 nM |  |  |  |  |  |  | 
CC[C@H](C)[C@@H](C(=O)N[C@@H](CC(C)C)C(=O)N[C@@H](CO)C(=O)N[C@@H](CO)C(=O)N[C@H](C(=O)N[C@@H](CC(N)=O)C(=O)N[C@H](C(=O)NCC(=O)N[C@@H](CO)C(=O)N[C@@H](CC(N)=O)C(=O)N[C@H](C(=O)N1CCC[C@H]1C(N)=O)[C@@H](C)O)C(C)C)[C@@H](C)O)N(C)C(=O)[C@H](C)NC(=O)CN(C)C(=O)[C@H](Cc1ccccc1)NC(=O)[C@H](CC(N)=O)NC(=O)[C@H](CC(N)=O)NC(=O)[C@H](CO)NC(=O)[C@H](CO)NC(=O)[C@H](Cc1c[nH]cn1)NC(=O)[C@H](Cc1c[nH]cn1)NC(=O)[C@H](CC(C)C)NC(=O)[C@H](Cc1ccccc1)NC(=O)[C@H](CCC(=O)O)NC(=O)[C@H](C)NC(=O)[C@H](CC(C)C)NC(=O)[C@H](CCCNC(=N)N)NC(=O)[C@H](CCC(N)=O)NC(=O)[C@@H](NC(=O)[C@H](C)NC(=O)[C@@H]1CSSC[C@H](NC(=O)[C@H](CCCN)NC(=O)CC[C@H](NC(=O)CCCCCCCCCCCCCCCCCCC(=O)O)C(=O)O)C(=O)N[C@@H](CC(N)=O)C(=O)N[C@@H]([C@@H](C)O)C(=O)N[C@@H](C)C(=O)N[C@@H]([C@@H](C)O)C(=O)N1)[C@@H](C)O [Compound 65, [19CD]-isoGlu-Orn-C()NTATC()ATQRLAEFLHHSSNNF-Gly(Me)-A-Ile(Me)-LSSTNVGSNTP-NH2] ({C20 diacid-γGlu}-[Orn]CNTATCATQRLAEFLHHSSNNF[Sar]A[NMeI]LSSTNVGSNTP-NH2; disulfide 2-7) |  | SS (SS indicates solubility ≥ 1mg/ml) | SS (SS indicates solubility ≥ 1mg/ml) | SS (SS indicates solubility ≥ 1mg/ml) | SS (SS indicates solubility ≥ 1mg/ml) | SS (SS indicates solubility ≥ 1mg/ml) | SS (SS indicates solubility ≥ 1mg/ml) | SS (SS indicates solubility ≥ 1mg/ml)
CC[C@H](C)[C@@H](C(=O)N[C@@H](CC(C)C)C(=O)N[C@@H](CO)C(=O)N[C@@H](CO)C(=O)N[C@H](C(=O)N[C@@H](CC(N)=O)C(=O)N[C@H](C(=O)NCC(=O)N[C@@H](CO)C(=O)N[C@@H](CC(N)=O)C(=O)N[C@H](C(=O)N1CCC[C@H]1C(N)=O)[C@@H](C)O)C(C)C)[C@@H](C)O)N(C)C(=O)[C@H](C)NC(=O)CN(C)C(=O)[C@H](Cc1ccccc1)NC(=O)[C@H](CC(N)=O)NC(=O)[C@H](CC(N)=O)NC(=O)[C@H](CO)NC(=O)[C@H](CO)NC(=O)[C@H](CCCNC(=N)N)NC(=O)[C@H](Cc1c[nH]cn1)NC(=O)[C@H](CC(C)C)NC(=O)[C@H](Cc1ccccc1)NC(=O)[C@H](CCC(=O)O)NC(=O)[C@H](C)NC(=O)[C@H](CC(C)C)NC(=O)[C@H](CCCNC(=N)N)NC(=O)[C@H](CCC(N)=O)NC(=O)[C@@H](NC(=O)[C@H](C)NC(=O)[C@@H]1CSSC[C@H](NC(=O)[C@H](CCCCN)NC(=O)CC[C@H](NC(=O)CCCCCCCCCCCCCCCCCCC(=O)O)C(=O)O)C(=O)N[C@@H](CC(N)=O)C(=O)N[C@@H]([C@@H](C)O)C(=O)N[C@@H](C)C(=O)N[C@@H]([C@@H](C)O)C(=O)N1)[C@@H](C)O [Compound 57, [19CD]-isoGlu-KC()NTATC()ATQRLAEFLHRSSNNF-Gly(Me)-A-Ile(Me)-LSSTNVGSNTP-NH2] ({C20 diacid-γGlu}-KCNTATCATQRLAEFLHRSSNNF[Sar]A[NMeI]LSSTNVGSNTP-NH2; disulfide 2-7) |  | SS (SS indicates solubility ≥ 1mg/ml) | SS (SS indicates solubility ≥ 1mg/ml) | SS (SS indicates solubility ≥ 1mg/ml) | SS (SS indicates solubility ≥ 1mg/ml) | SS (SS indicates solubility ≥ 1mg/ml) | SS (SS indicates solubility ≥ 1mg/ml) | SS (SS indicates solubility ≥ 1mg/ml)
